From ChEMBL document CHEMBL1156512, “Accumulation of glucosylceramide in murine testis, caused by inhibition of beta-glucosidase 2: implications for spermatogenesis” (J Biol Chem, 2007)
Activity calls are given as the source filed them. The calls are words filed in the database; no cut-off is given here.

Legend:
[1] = molecular target: T1, Beta-glucosidase (Homo sapiens, UniProt Q9HCG7); experiment: Inhibition of bile acid beta-glucosidase activity of human liver GBA2
T1 sequence (Q9HCG7 whole entry): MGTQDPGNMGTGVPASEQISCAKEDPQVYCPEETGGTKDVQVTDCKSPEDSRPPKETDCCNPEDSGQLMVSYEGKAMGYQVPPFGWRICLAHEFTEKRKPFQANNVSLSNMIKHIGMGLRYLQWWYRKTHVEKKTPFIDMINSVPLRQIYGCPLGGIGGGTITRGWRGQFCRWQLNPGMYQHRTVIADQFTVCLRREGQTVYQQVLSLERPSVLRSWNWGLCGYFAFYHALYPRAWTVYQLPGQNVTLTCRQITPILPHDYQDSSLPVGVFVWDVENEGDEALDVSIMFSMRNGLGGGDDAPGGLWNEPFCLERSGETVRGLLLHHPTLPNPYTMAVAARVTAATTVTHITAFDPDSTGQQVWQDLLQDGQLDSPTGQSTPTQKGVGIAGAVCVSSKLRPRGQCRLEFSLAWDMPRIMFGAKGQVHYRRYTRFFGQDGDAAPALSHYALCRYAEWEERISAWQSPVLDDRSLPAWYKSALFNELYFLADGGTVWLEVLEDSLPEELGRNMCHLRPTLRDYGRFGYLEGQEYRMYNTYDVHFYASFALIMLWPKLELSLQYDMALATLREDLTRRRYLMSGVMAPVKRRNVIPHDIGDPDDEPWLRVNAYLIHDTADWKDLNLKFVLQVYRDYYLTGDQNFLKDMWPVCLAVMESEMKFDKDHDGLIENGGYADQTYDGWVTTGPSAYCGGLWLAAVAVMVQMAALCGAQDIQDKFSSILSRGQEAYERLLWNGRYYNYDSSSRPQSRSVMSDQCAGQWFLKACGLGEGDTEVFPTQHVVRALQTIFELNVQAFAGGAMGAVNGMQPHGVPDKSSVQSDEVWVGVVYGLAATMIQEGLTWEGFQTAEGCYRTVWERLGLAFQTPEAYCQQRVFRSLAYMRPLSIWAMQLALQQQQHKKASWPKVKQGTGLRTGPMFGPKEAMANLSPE

[2] = system: Mus musculus; experiment: Effect on testicular sphingomyelin level in C57BL/6 mouse at 150 mg/kg/day administered with chow; assay type: functional, organism-based
[3] = system: Serum; experiment: Drug level in C57BL/6 mouse serum at 15 mg/kg/day assessed as enzyme activity; assay type: ADME, organism-based; settings: in vivo, read-out: Drug uptake
[4] = system: Mus musculus; experiment: Increase in complex glycosylated sphingolipids in C57BL/6 mouse testes at 5 mg/kg/day administered with chow; assay type: functional, Testis
[5] = system: Mus musculus; experiment: Decrease in testicular very long chain polyunsaturated fatty acid sphingomyelin level in beta-glucosidase 2 deficient C57BL/6-129S1 mouse at 150 mg/kg/day administered with chow; assay type: functional, organism-based
[6] = system: Mus musculus; experiment: Reduction of complex glycosylated sphingolipids level in C57BL/6 mouse testes at 2400 mg/kg/day administered with chow; assay type: functional; design: scale not given: the % may be the effect or the level left
[7] = system: Mus musculus; experiment: Effect on spermatogenesis in BALB/c mouse assessed as morphological changes in spermatozoa at 150 mg/kg/day administered with chow; assay type: functional, organism-based
[8] = system: Mus musculus; experiment: Increase in glucosylceramide level in C57BL/6 mouse testes at 300 mg/kg/day administered with chow; assay type: functional, organism-based; settings: Testis
[9] = system: Mus musculus; experiment: Effect on spermatogenesis in NZW mouse assessed as morphological changes in spermatozoa at 150 mg/kg/day administered with chow; assay type: functional, organism-based
[10] = system: Mus musculus; experiment: Effect on spermatogenesis in C3H mouse assessed as morphological changes in spermatozoa at 150 mg/kg/day administered with chow; assay type: functional, organism-based
[11] = system: Mus musculus; experiment: Increase in long and saturated glucosylceramide level in C57BL/6 mouse testes at 150 mg/kg/day administered with chow; assay type: functional, organism-based; settings: Testis
[12] = system: Mus musculus; experiment: Effect on spermatogenesis in C57BL/10 mouse assessed as morphological changes in spermatozoa at 15 mg/kg/day administered with chow; assay type: functional, organism-based
[13] = system: Mus musculus; experiment: Increase in glucosylceramide level in GBA2 deficient C57BL/6-129S1 mouse testes at 150 mg/kg/day administered with chow; assay type: functional, organism-based; settings: Testis
[14] = system: Mus musculus; experiment: Increase in glucosylceramide level in C57BL/6 mouse spleen administered with chow; assay type: functional, organism-based
[15] = system: Mus musculus; experiment: Increase in glucosylceramide level in GBA2 deficient C57BL/6-129S1 mouse somatic cells at 150 mg/kg/day administered with chow; assay type: functional, organism-based
[16] = system: Mus musculus; experiment: Effect on testicular ceramides level in C57BL/6 mouse at 150 mg/kg/day administered with chow; assay type: functional, organism-based
[17] = system: Mus musculus; experiment: Increase in glucosylceramide level in C57BL/6 mouse testes administered with chow after 5 days; assay type: functional, organism-based; settings: Testis
[18] = species: Mus musculus; experiment: Effect on glucosylceramide level in C57BL/6 mouse testes; assay type: functional, organism-based; settings: Testis
[19] = system: Mus musculus; experiment: Increase in very long and polyunsaturated glucosylceramide level in C57BL/6 mouse testes at 150 mg/kg/day administered with chow; assay type: functional, organism-based; settings: Testis
[20] = system: Mus musculus; experiment: Effect on glucosylceramide level in C57BL/6 mouse testes at 15 mg/kg/day administered with chow; assay type: functional, organism-based; settings: Testis
[21] = system: Mus musculus; experiment: Increase in glucosylceramide level in GBA2 deficient C57BL/6-129S1 mouse germ cells at 150 mg/kg/day administered with chow; assay type: functional, organism-based
[22] = system: Mus musculus; experiment: Effect on spermatogenesis in MA/My mouse assessed as morphological changes in spermatozoa at 150 mg/kg/day administered with chow; assay type: functional, organism-based
[23] = system: Mus musculus; experiment: Increase in glucosylceramide level in C57BL/6 mouse brain at 1200 mg/kg/day administered with chow; assay type: functional, organism-based
[24] = system: Mus musculus; experiment: Effect on spermatogenesis in AKR mouse assessed as morphological changes in spermatozoa at 150 mg/kg/day administered with chow; assay type: functional, organism-based
[25] = system: Mus musculus; experiment: Effect on complex glycosylated sphingolipids level in C57BL/6 mouse testes at 15 to 50 mg/kg/day, po; assay type: functional, organism-based; settings: Testis
[26] = system: Mus musculus; experiment: Increase in glucosylceramide level in C57BL/6 mouse liver administered with chow; assay type: functional, organism-based
[27] = system: Mus musculus; experiment: Increase in glucosylceramide level in C57BL/6 mouse testes administered with chow at 15 mg/kg/day after 3 to 12 months; assay type: functional, Testis
[28] = system: Mus musculus; experiment: Effect on spermatogenesis in DBA2 mouse assessed as morphological changes in spermatozoa at 150 mg/kg/day administered with chow; assay type: functional, organism-based
[29] = system: Mus musculus; experiment: Increase in complex glycosylated sphingolipids level in C57BL/6 mouse testes at 15 mg/kg/day administered with chow after 6 to 9 months; assay type: functional, organism-based; settings: Testis
[30] = system: Mus musculus; experiment: Effect on spermatogenesis in FVB/N mouse assessed as morphological changes in spermatozoa at 15 mg/kg/day administered with chow; assay type: functional, organism-based
[31] = system: Mus musculus; experiment: Effect on spermatogenesis in C57BL/6 mouse assessed as morphological changes in spermatozoa at 150 mg/kg/day administered with chow; assay type: functional, organism-based
[32] = species: Mus musculus; experiment: Increase in neutral glycolipids level in C57BL/6 mouse testes; assay type: functional, organism-based; settings: Testis
[33] = system: Mus musculus; experiment: Effect on spermatogenesis in C57BL/6-129S1 mouse assessed as morphological changes in spermatozoa at 150 mg/kg/day administered with chow; assay type: functional, organism-based
[34] = system: Mus musculus; experiment: Effect on spermatogenesis in C57BR mouse assessed as morphological changes in spermatozoa at 150 mg/kg/day administered with chow; assay type: functional, organism-based
[35] = molecular target: T2, Ceramide glucosyltransferase (Mus musculus, UniProt O88693); experiment: Inhibition mouse glucosylceramide synthase
T2 sequence (O88693 whole entry): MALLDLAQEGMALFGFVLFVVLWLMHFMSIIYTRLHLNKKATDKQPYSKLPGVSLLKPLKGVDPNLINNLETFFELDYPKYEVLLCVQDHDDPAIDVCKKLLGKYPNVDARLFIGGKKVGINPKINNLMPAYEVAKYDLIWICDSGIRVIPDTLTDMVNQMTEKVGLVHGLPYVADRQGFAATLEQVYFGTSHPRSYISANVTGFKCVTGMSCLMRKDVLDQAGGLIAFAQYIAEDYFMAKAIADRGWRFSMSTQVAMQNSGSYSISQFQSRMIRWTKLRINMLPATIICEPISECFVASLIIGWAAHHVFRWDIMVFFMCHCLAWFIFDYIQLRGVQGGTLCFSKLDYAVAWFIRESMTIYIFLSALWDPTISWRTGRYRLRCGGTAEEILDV

CCCCCCCCCOC(=O)N1C[C@H](O)[C@@H](O)[C@H](O)[C@H]1CO
IC50 [1]: 20 nM

CCCCCCCCCCCCN1C[C@H](O)[C@@H](O)[C@H](O)[C@H]1CO
IC50 [1]: 2 nM

CCCCN1C[C@H](O)[C@@H](O)[C@H](O)[C@H]1CO
Activity [2]: inactive | concentration [3]: 490 nM | Activity [4]: 15% | Activity [5]: Active | Activity [6]: 22% | Activity [7]: inactive | Activity [8]: Active | Activity [9]: inactive | Activity [10]: inactive | Activity [11]: Active | Activity [12]: Active | Activity [13]: Active | Activity [14]: Active | Activity [15]: Active | Activity [16]: inactive | Activity [17]: Active | Activity [18]: Dose-dependent effect | Activity [19]: Active | Activity [20]: Active | Activity [21]: Active | Activity [22]: inactive | Activity [23]: Active | Activity [24]: inactive | Activity [25]: inactive | Activity [26]: inactive | Activity [27]: 5 | Activity [28]: inactive | Activity [29]: Active | Activity [30]: inactive | Activity [31]: Active | Activity [32]: Active | Activity [33]: inactive | Activity [34]: Active

CCCCN1[C@H](CO)[C@H](O)[C@H](O)[C@@H](O)[C@@H]1O
IC50 [35]: 5300 nM
